1 compound from publication PMC11513893, “Discovery of Oral Degraders of the ROS1 Fusion Protein with Potent Activity against Secondary Resistance Mutations” (Journal of Medicinal Chemistry, 2024) can be followed below.

One series concerns the target BRK (PTK6) (Homo sapiens, UniProt Q13882). Nature of the series: Kinase assay. Conditions: average of duplicate measurements. The format is biochemical.
The target of the next series is ALK (Homo sapiens, UniProt Q9UM73). The series is described as follows: Kinase assay. Type of series: biochemical. Conditions: average of duplicate measurements.
For the next series, the system named is H2228 cells. Nature of the series: Whole cell proteomic analysis. Type of series: cell-based, human. To be noted: 100 nM, 24 h. How it is done: To minimize the effect of signaling blockade on proteomic changes, we decided that a more accurate quantitative determination of proteomic alterations would be to compare degrader-treated to inhibitor-treated.
Cell pellets were dissolved in 1 mL of RIPA buffer, 10 μL of phosphatase inhibitor, and 10 μL of protease inhibitor. Proteins were extracted and concentration was determined by the BCA assay. The protein samples were digested with sequencing grade modified trypsin (Promega Corp; Madison, WI) according to the manufacturer’s instructions. The peptides were labeled using the TMT Isobaric Mass Tagging kit (Thermo Fisher Scientific; # 90,060–90,061; Waltham, MA). The labeled peptide aliquots were then pooled together for subsequent fractionation and analysis. The TMT-labeled peptide mixtures were separated by an automated Easy-nLC1000 system coupled with a Q-Exactive spectrometer (Thermo Finnigan, Waltham, MA). The identification of proteins was performed using Proteome Discoverer software v2.3 (Thermo Fisher Scientific; Waltham, MA) and Mascot v2.6 (Matrix Science, Boston, MA), based on “Uniprot Human” database. The proteins that were identified on the basis of at least one unique peptide were included in the data. The ratios of TMT reporter ion abundance in 9o-treated cells and inhibitor-treated cells were used to calculate protein relative abundance.

Series [1] in a line: Pharmacokinetics study in Sprague–Dawley rats. The format is in vivo. To be noted: rat.
Series [2] concerns the target ROS1 (Homo sapiens, UniProt P08922). Nature of the series: Kinase assay. Type of series: biochemical. To be noted: average of duplicate measurements.
Another series has as its target FLT3 (Homo sapiens, UniProt P36888). The series is described as follows: Kinase assay. The format is biochemical. To be noted: average of duplicate measurements.
In the next series the target is PTK2B (Homo sapiens, UniProt Q14289). The series is described as follows: Kinase assay. The format is biochemical. Conditions: average of duplicate measurements.
The target of a further series is ROS1 (G2101A) (Homo sapiens, UniProt P08922, G2101A). Nature of the series: Kinase assay. Type of series: biochemical. To be noted: average of duplicate measurements.
For the next series, the target named is CHEK1 (Homo sapiens, UniProt O14757). The series is described as follows: Kinase assay. The format is biochemical. To be noted: average of duplicate measurements.
Another series has as its target ROS1 (L2086F) (Homo sapiens, UniProt P08922, L2086F). The series is described as follows: Kinase assay. The format is biochemical. Conditions: average of duplicate measurements.
A further series concerns the target ERBB4/HER4 (Homo sapiens, UniProt Q15303). Nature of the series: Kinase assay. Conditions: average of duplicate measurements. The format is biochemical.
Series [3] deals with ROS1. Nature of the series: ROS1 degradation in Ba/F3 cells (WES immunoblotting). Type of series: cell-based. Conditions: maximal degradation of ROS1 in Ba/F3 cells. The procedure, abridged: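 ROS1 and phospho-ROS1 (Tyr2274/2334) in Ba/F3 lysates quantified by capillary immunoassay (WES) with chemiluminescent detection, duplicate experiments. Levels expressed as AUC of the chemiluminescence peak.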

Values joined by “and” are separate entries in the source; they are usually repeats but may differ in a detail not shown here. Identical values can stand only once.

Sequence of FLT3 (P36888 27-993, species assumed): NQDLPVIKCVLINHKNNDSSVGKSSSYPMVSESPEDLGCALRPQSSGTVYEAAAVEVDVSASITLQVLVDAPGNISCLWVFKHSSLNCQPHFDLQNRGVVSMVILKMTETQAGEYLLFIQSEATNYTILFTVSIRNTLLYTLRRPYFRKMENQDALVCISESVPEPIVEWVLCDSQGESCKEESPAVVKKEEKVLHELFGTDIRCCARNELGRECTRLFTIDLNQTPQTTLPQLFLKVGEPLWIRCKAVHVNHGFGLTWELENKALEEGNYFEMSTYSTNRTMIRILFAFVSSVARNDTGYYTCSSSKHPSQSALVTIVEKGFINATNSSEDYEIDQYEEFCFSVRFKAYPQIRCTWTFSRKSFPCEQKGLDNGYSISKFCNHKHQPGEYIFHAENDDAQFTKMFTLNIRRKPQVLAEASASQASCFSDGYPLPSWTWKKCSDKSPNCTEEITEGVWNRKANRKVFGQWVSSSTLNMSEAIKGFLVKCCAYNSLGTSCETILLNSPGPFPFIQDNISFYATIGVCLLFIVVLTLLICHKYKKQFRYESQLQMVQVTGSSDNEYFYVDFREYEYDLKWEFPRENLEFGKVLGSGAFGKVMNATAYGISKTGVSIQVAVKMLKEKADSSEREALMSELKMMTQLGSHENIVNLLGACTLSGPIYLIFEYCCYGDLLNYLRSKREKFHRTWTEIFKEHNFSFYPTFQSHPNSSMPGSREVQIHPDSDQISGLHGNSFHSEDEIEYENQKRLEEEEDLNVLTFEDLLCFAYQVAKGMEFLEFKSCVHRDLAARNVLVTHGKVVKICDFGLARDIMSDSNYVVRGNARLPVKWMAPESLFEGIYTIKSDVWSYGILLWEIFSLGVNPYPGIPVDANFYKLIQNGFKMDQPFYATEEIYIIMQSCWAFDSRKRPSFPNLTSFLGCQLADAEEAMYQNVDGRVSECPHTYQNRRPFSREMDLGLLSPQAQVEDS
Sequence of CHEK1 (O14757 whole entry, species assumed): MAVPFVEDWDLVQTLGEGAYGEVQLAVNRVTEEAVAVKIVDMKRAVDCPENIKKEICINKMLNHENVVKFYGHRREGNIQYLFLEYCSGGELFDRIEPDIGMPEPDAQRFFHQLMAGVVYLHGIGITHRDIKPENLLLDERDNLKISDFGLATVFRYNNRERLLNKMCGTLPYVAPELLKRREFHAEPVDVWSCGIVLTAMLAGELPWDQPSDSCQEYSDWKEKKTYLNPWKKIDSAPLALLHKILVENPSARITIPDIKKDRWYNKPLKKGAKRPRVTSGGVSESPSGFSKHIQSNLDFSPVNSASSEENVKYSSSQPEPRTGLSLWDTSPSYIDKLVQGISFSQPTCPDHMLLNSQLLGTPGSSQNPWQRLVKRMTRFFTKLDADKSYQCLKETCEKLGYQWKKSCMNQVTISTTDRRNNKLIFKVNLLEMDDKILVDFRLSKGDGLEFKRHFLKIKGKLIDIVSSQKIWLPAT
Sequence of ERBB4/HER4 (Q15303 26-1308): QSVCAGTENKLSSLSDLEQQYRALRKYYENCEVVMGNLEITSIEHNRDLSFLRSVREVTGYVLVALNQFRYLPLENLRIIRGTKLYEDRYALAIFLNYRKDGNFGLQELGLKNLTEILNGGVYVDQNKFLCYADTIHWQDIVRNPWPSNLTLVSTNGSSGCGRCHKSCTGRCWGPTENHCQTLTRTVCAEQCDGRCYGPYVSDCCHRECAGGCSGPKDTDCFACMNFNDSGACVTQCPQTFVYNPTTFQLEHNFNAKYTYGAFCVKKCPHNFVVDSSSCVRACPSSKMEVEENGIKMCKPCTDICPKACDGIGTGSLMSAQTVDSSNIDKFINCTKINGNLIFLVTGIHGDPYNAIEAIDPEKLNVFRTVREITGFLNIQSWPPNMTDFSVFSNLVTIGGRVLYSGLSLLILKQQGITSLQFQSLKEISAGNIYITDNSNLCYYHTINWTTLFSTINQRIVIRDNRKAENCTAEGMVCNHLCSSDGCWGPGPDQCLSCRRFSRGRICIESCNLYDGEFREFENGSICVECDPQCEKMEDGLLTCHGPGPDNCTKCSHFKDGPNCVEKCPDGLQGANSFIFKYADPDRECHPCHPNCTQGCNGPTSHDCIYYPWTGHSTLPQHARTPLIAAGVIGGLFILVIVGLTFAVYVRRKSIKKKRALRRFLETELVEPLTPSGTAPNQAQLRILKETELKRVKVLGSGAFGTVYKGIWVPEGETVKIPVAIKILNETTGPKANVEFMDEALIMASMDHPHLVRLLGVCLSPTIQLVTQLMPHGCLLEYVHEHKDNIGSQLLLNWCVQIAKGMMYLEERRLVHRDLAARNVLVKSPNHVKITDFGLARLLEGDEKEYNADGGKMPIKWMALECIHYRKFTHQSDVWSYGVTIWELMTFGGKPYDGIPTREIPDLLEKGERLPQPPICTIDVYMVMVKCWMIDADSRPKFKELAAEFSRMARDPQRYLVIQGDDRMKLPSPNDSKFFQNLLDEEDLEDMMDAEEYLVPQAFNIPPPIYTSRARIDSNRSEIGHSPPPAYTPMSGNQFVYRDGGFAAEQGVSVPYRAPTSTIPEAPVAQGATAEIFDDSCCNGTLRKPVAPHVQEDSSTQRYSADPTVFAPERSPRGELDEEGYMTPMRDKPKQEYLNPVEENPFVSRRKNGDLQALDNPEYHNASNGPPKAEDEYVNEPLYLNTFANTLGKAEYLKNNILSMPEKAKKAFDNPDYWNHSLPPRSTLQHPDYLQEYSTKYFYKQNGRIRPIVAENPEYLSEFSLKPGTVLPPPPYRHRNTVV
Sequence of ROS1 (G2101A) (P08922 28-2347 G2101A): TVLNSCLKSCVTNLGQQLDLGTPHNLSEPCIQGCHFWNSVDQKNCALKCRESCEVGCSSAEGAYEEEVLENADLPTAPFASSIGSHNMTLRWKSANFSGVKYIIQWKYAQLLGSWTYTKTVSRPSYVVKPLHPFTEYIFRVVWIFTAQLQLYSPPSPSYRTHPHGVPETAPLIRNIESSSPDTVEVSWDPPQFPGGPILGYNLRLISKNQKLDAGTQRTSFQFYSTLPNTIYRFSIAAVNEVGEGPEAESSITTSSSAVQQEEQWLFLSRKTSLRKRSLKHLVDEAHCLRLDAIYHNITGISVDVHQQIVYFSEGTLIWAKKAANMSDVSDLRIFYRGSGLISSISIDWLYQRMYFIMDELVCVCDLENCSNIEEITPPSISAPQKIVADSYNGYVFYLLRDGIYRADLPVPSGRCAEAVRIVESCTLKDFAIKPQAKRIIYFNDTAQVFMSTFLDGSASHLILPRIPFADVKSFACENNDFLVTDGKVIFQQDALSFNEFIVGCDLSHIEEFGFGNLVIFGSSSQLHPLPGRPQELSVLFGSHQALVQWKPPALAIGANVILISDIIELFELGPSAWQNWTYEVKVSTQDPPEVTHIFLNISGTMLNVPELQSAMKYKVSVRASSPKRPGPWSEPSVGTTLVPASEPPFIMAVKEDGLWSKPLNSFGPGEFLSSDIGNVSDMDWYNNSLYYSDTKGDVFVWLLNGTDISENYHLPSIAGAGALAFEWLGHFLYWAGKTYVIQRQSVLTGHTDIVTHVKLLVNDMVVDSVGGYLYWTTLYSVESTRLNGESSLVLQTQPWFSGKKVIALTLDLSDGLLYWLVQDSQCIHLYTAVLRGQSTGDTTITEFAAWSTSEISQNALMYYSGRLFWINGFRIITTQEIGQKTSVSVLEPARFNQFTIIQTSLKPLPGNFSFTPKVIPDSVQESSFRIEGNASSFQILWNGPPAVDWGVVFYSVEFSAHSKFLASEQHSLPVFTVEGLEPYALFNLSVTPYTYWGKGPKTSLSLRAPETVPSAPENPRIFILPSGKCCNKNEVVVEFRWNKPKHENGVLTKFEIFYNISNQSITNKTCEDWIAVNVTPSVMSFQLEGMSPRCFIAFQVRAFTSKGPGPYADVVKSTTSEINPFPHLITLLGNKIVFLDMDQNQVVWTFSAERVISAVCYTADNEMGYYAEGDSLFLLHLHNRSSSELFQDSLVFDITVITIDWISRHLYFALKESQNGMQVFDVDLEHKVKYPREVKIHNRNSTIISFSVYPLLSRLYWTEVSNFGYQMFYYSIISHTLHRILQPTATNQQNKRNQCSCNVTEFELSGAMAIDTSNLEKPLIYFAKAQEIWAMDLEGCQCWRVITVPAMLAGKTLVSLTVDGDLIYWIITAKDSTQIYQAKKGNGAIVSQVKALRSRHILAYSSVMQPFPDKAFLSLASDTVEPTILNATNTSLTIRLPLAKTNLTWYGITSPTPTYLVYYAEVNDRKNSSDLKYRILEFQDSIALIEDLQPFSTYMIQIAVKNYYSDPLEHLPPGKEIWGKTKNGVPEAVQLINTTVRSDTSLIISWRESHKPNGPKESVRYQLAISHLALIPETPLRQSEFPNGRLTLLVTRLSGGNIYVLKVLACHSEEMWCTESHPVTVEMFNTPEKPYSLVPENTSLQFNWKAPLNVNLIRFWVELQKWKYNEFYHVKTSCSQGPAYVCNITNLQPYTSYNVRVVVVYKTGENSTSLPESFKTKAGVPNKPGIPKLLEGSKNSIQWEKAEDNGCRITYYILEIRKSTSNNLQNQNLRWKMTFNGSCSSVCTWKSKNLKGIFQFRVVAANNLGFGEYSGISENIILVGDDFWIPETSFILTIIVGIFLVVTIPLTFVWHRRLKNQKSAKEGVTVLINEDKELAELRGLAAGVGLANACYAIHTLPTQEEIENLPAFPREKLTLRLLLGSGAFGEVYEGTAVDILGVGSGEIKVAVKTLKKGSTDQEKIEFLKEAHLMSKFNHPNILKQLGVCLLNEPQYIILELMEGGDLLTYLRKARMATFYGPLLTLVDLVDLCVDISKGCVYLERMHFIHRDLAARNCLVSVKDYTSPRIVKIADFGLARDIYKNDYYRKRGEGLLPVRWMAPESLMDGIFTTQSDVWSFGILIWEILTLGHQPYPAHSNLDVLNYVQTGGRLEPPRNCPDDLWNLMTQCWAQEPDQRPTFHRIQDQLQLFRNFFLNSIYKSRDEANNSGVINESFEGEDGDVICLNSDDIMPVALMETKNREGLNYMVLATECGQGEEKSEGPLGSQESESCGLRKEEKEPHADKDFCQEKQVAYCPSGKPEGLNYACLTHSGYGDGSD
Sequence of ROS1 (L2086F) (P08922 28-2347 L2086F): as the sequence (P08922 28-2347 G2101A) above, with L2059F, A2074G counted along it

As a reminder, the IC50 is the concentration at which inhibition is half-maximal. Low readings indicate higher potency, high ones lower potency. Broadly, the Cmax is the highest concentration seen after dosing. Usually bioavailability stands for the share of a dose that reaches the circulation, judged against a reference dose that is usually intravenous. The Tmax is the time at which the peak concentration occurs. Regarding `COc1cc(N2CCC(N3CCN(CC4CCN(c5ccc6c(c5)CN(C5CCC(=O)NC5=O)C6=O)CC4)CC3)CC2)ccc1Nc1ncc(Cl)c(Nc2ccccc2P(C)(C)=O)n1` (stereo not shown) [9o, 3-(5-(4-((4-(1-(4-((5-Chloro-4-((2-(dimethylphosphoryl)phenyl)amino)pyrimidin-2-yl)amino)-3-methoxyphenyl)piperidin-4-yl)piperazin-1-yl)methyl)piperidin-1-yl)-1-oxoisoindolin-2-yl)piperidine-2,6-dione], the 50% inhibitory concentration (IC50) was 76 nM against BRK (PTK6); 0.9 nM at ALK; 0.8 nM on ROS1 [2]; < 10 nM and 3.5 nM on FLT3; 34 nM at PTK2B; 10.9 nM against ROS1 (G2101A). Besides, the figures for the 50% inhibitory concentration (IC50) against CHEK1, on ROS1 (L2086F) and against ERBB4/HER4 were 40 nM, 218 nM and 27 nM, respectively. The “kinases significantly degraded (proteomics, degrader-treated vs brigatinib-treated)” value in the series on H2228 cells is “only three kinases were significantly degraded”. In series [1] (Sprague-Dawley [Crl: CD (SD)], plasma, 5 mg/kg po), the Cmax at 24 h was 94 ng/mL. The bioavailability in series [1] (Sprague-Dawley [Crl: CD (SD)], plasma, 5 mg/kg po vs 0.5 mg/kg iv) was found to be 7.3%. For the same compound, the “AUC (po)” value in [1] (5 mg/kg po) was 1267 ng·h/mL. In addition, the T1/2 in series [1] (5 mg/kg po) was found to be 7.32 h. Further, in series [1] (5 mg/kg po), the Tmax turned out to be 2 h. The “Dmax (%) (ROS1)” value with ROS1 [3] turned out to be 99%.
